Experimental data: patent US11414424B2, “Cardiac sarcomere inhibitors” (Cytokinetics, Inc., priority 2018, dated 2022)

Tested on: bovine cardiac myofibrils
Assay: Myofibril assay: PK/LDH-coupled steady-state ATPase activity of skinned bovine cardiac myofibrils
Type: biochemical
Conditions: Ca2+ activating to 75% of maximal rate
Summary of the method: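 Steady-state ATPase of detergent-skinned bovine left-ventricular myofibrils (1 mg/mL), PK/LDH-coupled NADH read at 340 nm, in PIPES/MgCl2 buffer pH 6.8 with 50 μM ATP, 0.6 mM EGTA and CaCl2 set for 50% or 75% activation. Inhibition of activity measured.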

Structure (SMILES) | CDMF75 IC15 [µM]
CCOC(=O)C12CC(C3C(=O)N(c4ncc(Cl)cc4F)CC(=O)N3Cc3ccc(C(F)(F)F)cc3)(C1)C2 (stereo not shown) [Compound 782, ethyl 3-(4-(5-chloro-3-fluoropyridin-2-yl)-3,6-dioxo-1-(4-(trifluoro-methyl)benzyl)piperazin-2-yl)bicyclo[1.1.1]pentane-1-carboxylate] | 3.6
CNC(=O)N1CC2(C1)C(=O)N(c1ccc(F)cc1)CC(=O)N2Cc1ccc(C(F)(F)F)cc1 [Compound 149, 8-(4-fluorophenyl)-N-methyl-6,9-dioxo-5-(4-(trifluoromethyl)benzyl)-2,5,8-triazaspiro[3.5]-nonane-2-carboxamide] | 8.9
COC(=O)C12CC(C3C(=O)N(c4ncc(Cl)cc4F)CC(=O)N3Cc3ccc(F)cc3)(C1)C2 (stereo not shown) [Compound 780, methyl 3-(4-(5-chloro-3-fluoropyridin-2-yl)-1-(4-fluorobenzyl)-3,6-dioxopiperazin-2-yl)bicyclo[1.1.1]pentane-1-carboxylate] | 3.6
Cn1cc(NC(=O)N2CC3(C2)C(=O)N(c2ccc(C#N)c(F)c2)CC(=O)N3Cc2ccc(C(F)(F)F)cc2)cn1 [Compound 200, 8-(4-cyano-3-fluorophenyl)-N-(1-methyl-1H-pyrazol-4-yl)-6,9-dioxo-5-(4-(trifluoromethyl)benzyl)-2,5,8-triazaspiro[3.5]nonane-2-carboxamide] | 0.9
CC(C)N1CC(=O)N(Cc2ccc(Cl)cc2)C2(CN(c3ccc(=O)[nH]n3)C2)C1=O [Compound 52, 5-(4-chlorobenzyl)-8-isopropyl-2-(6-oxo-1,6-dihydropyridazin-3-yl)-2,5,8-triazaspiro[3.5]-nonane-6,9-dione] | 17.8
CC1(C(F)F)C(=O)N(c2ncc(Cl)cc2F)CC(=O)N1Cc1ccc(C(F)(F)F)cc1 (stereo not shown) [Compound 657, 1-(5-chloro-3-fluoropyridin-2-yl)-3-(difluoromethyl)-3-methyl-4-(4-(trifluoro-methyl)-benzyl)piperazine-2,5-dione] | 1.4
CC(C)N1CC(=O)N(Cc2ccc(C#N)cc2)C(c2ccc(Cl)cc2)C1=O (stereo not shown) [Compound 307, 4-((2-(4-chlorophenyl)-4-isopropyl-3,6-dioxo-piperazin-1-yl)methyl)-benzonitrile] | 36.7
CCC(=O)N1CC[C@]2(C1)C(=O)N(c1ccc(C#N)cc1F)CC(=O)N2Cc1ccc(C(F)(F)F)cc1 [Compound 218, (S)-4-(7,10-dioxo-2-propionyl-6-(4-(trifluoromethyl)benzyl)-2,6,9-triazaspiro[4.5]decan-9-yl)-3-fluorobenzonitrile] | 0.4
CNC(=O)c1cccc(N2CC3(C2)C(=O)N(c2ccc(C#N)cc2F)CC(=O)N3Cc2ccc(C(F)(F)F)cc2)c1NC [Compound 547, 3-(8-(4-cyano-2-fluorophenyl)-6,9-dioxo-5-(4-(trifluoromethyl)benzyl)-2,5,8-triazaspiro[3.5]nonan-2-yl)-N-methyl-2-(methylamino)benzamide] | 0.4
CC(C)N1CC(=O)N(Cc2ccc(Cl)cc2)C2(CN(c3nc4c(s3)COCC4)C2)C1=O [Compound 47, 5-(4-chlorobenzyl)-2-(6,7-dihydro-4H-pyrano[4,3-d]thiazol-2-yl)-8-isopropyl-2,5,8-triazaspiro[3.5]-nonane-6,9-dione] | 3.7
CNC(=O)N1CC2(C1)C(=O)N(c1ccc(OC(F)F)c(F)c1)CC(=O)N2Cc1ccc(C(F)(F)F)cc1 [Compound 171, 8-(4-(difluoromethoxy)-3-fluorophenyl)-N-methyl-6,9-dioxo-5-(4-(trifluoromethyl)benzyl)-2,5/8-triazaspiro[3.5]-nonane-2-carboxamide] | 2.0
CNC(=O)c1ccc(N2CC3(C2)C(=O)N(c2ccc(C#N)cc2F)CC(=O)N3Cc2ccc(C(F)(F)F)cc2)cc1NC [Compound 542, 4-(8-(4-cyano-2-fluoro-phenyl)-6,9-dioxo-5-(4-(trifluoromethyl)benzyl)-2,5,8-triazaspiro[3.5]nonan-2-yl)-N-methyl-2-(methylamino)benzamide] | 0.2
CC(C)N1CC(=O)N(Cc2ccc(Cl)cc2)C(c2ccc(Cl)cc2)C1=O (racemic) [Compound 288, 3-(4-chlorophenyl)-4-[(4-chlorophenyl)methyl]-1-(propan-2-yl)piperazine-2,5-dione] | 1.8
Cc1cc(Cl)cnc1N1CC(=O)N(Cc2ccc(Cl)cc2)[C@@H](C(C)C)C1=O [Compound 660, (S)-1-(5-chloro-3-methylpyridin-2-yl)-4-(4-chlorobenzyl)-3-isopropyl-piperazine-2,5-dione] | 0.84
Cc1cncc(N2CC3(C2)C(=O)N(C(C)C)CC(=O)N3Cc2ccc(Cl)cc2)c1 [Compound 16, 5-(4-chlorobenzyl)-8-isopropyl-2-(5-methyl-pyridin-3-yl)-2,5,8-triazaspiro[3.5]nonane-6,9-dione] | 2.7
CNC(=O)N1CCC2(C1)C(=O)N(c1ccc([N+](=O)[O-])cc1)CC(=O)N2Cc1ccc(Cl)cc1 (stereo not shown) [Compound 349, 6-(4-chlorobenzyl)-N-methyl-9-(4-nitrophenyl)-7,10-dioxo-2,6,9-triazaspiro[4.5]decane-2-carboxamide] | 0.9
O=C1C(C23CC(O)(C2)C3)N(Cc2ccc(C(F)(F)F)cc2)C(=O)CN1c1ncc(Cl)cc1F (stereo not shown) [Compound 838, 1-(5-chloro-3-fluoropyridin-2-yl)-3-(3-hydroxybicyclo[1.1.1]pentan-1-yl)-4-(4-(trifluoromethyl)benzyl)piperazine-2,5-dione] | 3.8
COC(=O)C12CC(C3C(=O)N(c4ncc(Cl)cc4F)CC(=O)N3Cc3ccc(C(F)(F)F)cc3)(C1)C2 (stereo not shown) [Compound 778, methyl 3-(4-(5-chloro-3-fluoropyridin-2-yl)-3,6-dioxo-1-(4-(trifluoro-methyl)benzyl)piperazin-2-yl)bicydo[1.1.1]pentane-1-carboxylate] | 2.4
COC(=O)C12CC(C3C(=O)N(c4ncc(Cl)cc4F)CC(=O)N3Cc3ccc(C(F)F)cc3)(C1)C2 (stereo not shown) [Compound 779, methyl 3-(4-(5-chloro-3-fluoropyridin-2-yl)-1-(4-(difluoromethyl)benzyl)-3,6-dioxopiperazin-2-yl)bicyclo[1.1.1]pentane-1-carboxylate] | 2.9
CC(=O)N1CC2(C1)C(=O)N(c1ncc(Cl)cc1F)CC(=O)N2[C@@H](C)c1ccc(Cl)cc1 [Compound 556, (S)-2-acetyl-8-(5-chloro-3-fluoropyridin-2-yl)-5-(1-(4-chlorophenyl)ethyl)-2,5,8-triazaspiro[3.5]nonane-6,9-dione] | 2.7
CC(=O)N1CC[C@]2(C1)C(=O)N(c1ccc(OC(F)F)cc1)CC(=O)N2Cc1ccc(Cl)cc1 [Compound 224, (S)-2-acetyl-6-(4-chloro-benzyl)-9-(4-(difluoro-methoxy)phenyl)-2,6,9-triazaspiro[4.5]decane-7,10-dione] | 12.1
O=C1C(C2COC2)N(Cc2ccc(F)c(F)c2)C(=O)CN1c1ncc(Cl)cc1F (stereo not shown) [Compound 647, 1-(5-chloro-3-fluoropyridin-2-yl)-4-(3,4-difluorobenzyl)-3-(oxetan-3-yl)piperazine-2,5-dione] | 2.1
